Literature values, collected in US20090253620A1, “METHODS AND COMPOSITIONS FOR TREATING GASTROINTESTINAL RADIOSENSITITIVITY IN A SUBJECT” (WASHINGTON UNIVERSITY IN ST. LOUIS, priority 2005, published 2009).

Columns and labels:
[1] = tested on: mice; details: CONV-R wt mice
[2] = tested on: intestinal mesenchymal cells; details: CONV-R wt mice

In the case of Fgf-2: fibroblast growth factor-2, the TBI-associated mortality [1] is listed as “decreases” and the “TBI-induced intestinal mesenchymal apoptosis” value [2] is listed as “attenuates”.
